Laboratory results: PMC13108699, “Mass balance and metabolite profiling of ^14C-Zalunfiban in humans following single-dose subcutaneous administration” (Xenobiotica; the fate of foreign compounds in biological …, 2025)

Experiments:
[1] = Metabolite profiling of pooled whole blood, urine and faeces by LC radiochromatograms with AMS; format: in vivo, human
Method: For metabolite profiling in whole blood, urine, and faeces, LC-MS/MS followed by AMS was used. The HPLC system included a 1290 Infinity Sampler, Binary Pump, and thermostat (Agilent, UK). The chromatographic method used an aqueous formic acid (MPA)/ammonium acetate:acetonitrile:methanol (MPB) gradient and a Scherzo SS-C18 HPLC column at a temperature of 40 °C with injection volumes of 50–200 microliters. The gradient was set at 90% MAP and 10% MPB. The mass spectrometer was a Q-Exactive system (Thermo Fisher Scientific, UK) and the AMS a single stage NEC SSAMS-250.
Single whole blood, faeces, and urine pools were created across subjects and radioactive regions representing 10% or more of the circulating radioactivity were analysed (e.g. 10% or more of the circulating radioactivity in whole blood or accounting for 10% or more of the administered radioactivity/dose in urine and faeces), To create the pool, an individual subject AUC pool was prepared, and a constant proportion of each subject pool was taken to create one cross-subject pool. The whole blood sample pool included samples from hours 0–144, the urine sample pool included samples from hours 0–48, and the faeces pool from hours 0–192.
Whole blood, faeces, and urine radiochromatograms were generated for each sample by collecting HPLC fractions at intervals of 2 (30 s) or 4 (15 s) per minute over the run time of 110 min.
Radiochromatograms were generated from AMS data using the LAURA V6 software (LabLogic, Sheffield, UK). Regions of interest were quantified and provisionally identified where possible by assignment of observed peaks in each radiochromatogram to either parent zalunfiban or M1 by retention time matching, with corresponding ^12C-reference standards obtained via LC-UV.
Assignment of parent and metabolites was made by matching retention times with synthesised standards at wavelengths of 210, 230, 254, 270, and 300 nm, using liquid chromatography ultraviolet chromatography (LC-UV).
For extraction of ^14C-zalunfiban from whole blood, weighed aliquots in microcentrifuge tubes were processed with vortex mixing and centrifugation. The supernatant was then harvested and the process repeated with the bullet material in the original tube using acetonitrile and then methanol. The combined aliquots then underwent AMS analysis to determine the extraction recovery. Once optimised, the final combined supernatant was dried under N2 gas at 40 °C and reconstituted with 1 mL methanol:water (20:80, v/v), with vortex mixing and sonication. This was followed by analysis by LC. The radioactivity extraction recovery for whole blood (AUC0–144h) was 54.5%,
For extraction of ^14C-zalunfiban from homogenised faeces, weighed aliquots in microcentrifuge tubes were processed with vortex mixing and centrifugation, and then diluted with acetonitrile, followed by additional mixing, centrifugation, and repeat extraction with methanol:water until optimised. Once optimised, the final combined supernatant was dried under N2 gas at 40 °C and reconstituted with methanol, followed by water, followed by vortex mixing, followed by analysis by LC. The radioactivity extraction recovery for faeces (0–192 h) was 100%.
Urine was not subjected to extraction. An aliquot was dispensed into an LC vial prior to analysis.

platelet aggregation = assay: In vitro inhibition of ADP-induced platelet aggregation in platelet-rich plasma; format: cell-based, human; conditions: Homo sapiens, Platelet, 20 min; PRP, 20 min at 22°C, ADP-initiated aggregation
Method: Ten mL of whole blood was collected from healthy human donors via venipuncture and treated with an anticoagulant (D-phenylalanyl-prolyl-arginyl chloromethyl ketone). From this, platelet-rich plasma (PRP) was prepared by centrifuging whole blood at room temperature at 650 × g for 4 min. PRP was removed and standardised to a uniform platelet concentration of 3.0 × 10^5/μL, using platelet poor plasma as a diluent, where necessary. […] Platelet aggregation was measured using an aggregometer (PAP-8E C/N 106075; Bio/Data Corp, Horsham PA). For M1 a range of concentrations was tested to produce a single fitted curve, and the Levenberg-Marquardt approach was used to calculate IC50 values.

[2] = Safety assessments (adverse events, laboratory, vital signs, ECG); format: in vivo, human; conditions: for Tolerability: single SC 9.5 mg, 8 healthy males
Method: The study was reviewed, approved, and monitored by both an independent Institutional Review Board and a Data Safety Monitoring Board, and the protocol was performed under an Investigational New Drug Application. The safety of single-dose SC zalunfiban was evaluated by monitoring adverse events, clinical laboratory data, vital signs, 12-lead electrocardiogram, and physical examination. Vital signs (blood pressure, heart rate, body temperature, respiratory rate) were measured at screening, admission, pre-dose, post-dose at 1, 4, 8, hours, and in the morning on study days 2–11. Safety laboratory tests included serum chemistry, haematology, coagulation, and urinalysis, and were performed at screening, admission, and on study days 1, 4, and 11. On day 1, additional platelet counts were performed post-dose at 2, 6, and 12 h. […] Participants were continuously monitored for adverse events (AEs) and new use of medication(s).
During the study, AEs were collected from the time of informed consent to the last time the participant was seen. Any AE that occurred after the start of study drug administration was considered a treatment-emergent AE (TEAE). The investigator or designee assessed the severity of all AEs using the toxicity grading scale in National Cancer Institute Common Terminology Criteria for Adverse Events v5.0. These scales assign a grade of 1 through 5 to indicate the severity of AEs.

SMILES: NCC(=O)Nc1cncc(-c2nn3c(=O)cc(N4CCNCC4)nc3s2)c1 [Zalunfiban, 2-amino-N-{5-[5-oxo-7-(piperazin-1-yl)-5H-[1,3,4]thia-diazolo[3,2-a]pyrimidin-2-yl]pyridin-3-yl}acetamide]
- Percentage of dose excreted in urine ([1]; 0–48 h): 1.31%
- Percentage of total radioactivity in urine ([1]; 0–48 h cross-participant pooled sample): 1.59%
- Percentage of dose excreted in faeces ([1]; 0–192 h): 0.0239%
- Percentage of total radioactivity in faeces ([1]; 0–192 h pooled sample): 0.173%
- Percentage of total circulating radioactivity in whole blood ([1]; AUC0–144 cross-pooled whole blood extract): 46.9%
- IC50 (platelet aggregation): 112 nM
- TEAE headache ([2]; 1 grade 1 and one grade 2, of 8 dosed): 2 participants
- Changes in clinical laboratory tests, vital signs, or ECGs ([2]; 8 dosed): no observed clinically significant changes
- Serious TEAEs ([2]; 8 dosed): no serious TEAEs
- TEAEs leading to study discontinuation ([2]; 8 dosed): no TEAEs leading to study discontinuation
- TEAE confusion ([2]; grade 1, of 8 dosed): 1 participant
- TEAE injection site bruising ([2]; grade 1, of 8 dosed): 1 participant
- TEAE injection site pain ([2]; grade 1, of 8 dosed): 1 participant
- Participants with Grade 1 AEs ([2]; of 8 dosed): 4 participants
- Participants with a Grade 2 AE ([2]; of 8 dosed): 1 participant
- Tolerability [2]: well-tolerated
- Tolerability ([2]; listed as 14C-zalunfiban): safe and well-tolerated
